In US7932246B2, “Histone deacetylase inhibitors” (Chroma Therapeutics Ltd., priority 2005, dated 2011):

Columns and labels:
[1] = target: histone deacetylase activity (HeLa nuclear extract); test: HDAC fluorescent activity assay (Biomol, Fluor de Lys substrate); assay type: biochemical; conditions: IC50 range
Summary of the method: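 HeLa nuclear extract served as the deacetylase source for the acetyl-lysine Fluor de Lys substrate, with or without inhibitor. Developer converts deacetylated substrate to a fluorophore.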

[2] = test system: U937; test: U937 cell inhibition assay (WST-1 cell viability); assay type: cell-based; conditions: Homo sapiens, U-937; U937 cells, 72-96 h, WST-1 assay, IC50 range
Summary of the method: (§1)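 Cells seeded at 1000-2000/well, grown 24 h, then treated for 72-96 h with 8 concentrations (top 10 μM, 3-fold, 6 replicates). Viability by WST-1; inhibition relative to DMSO, IC50 by sigmoidal variable-slope fit.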

[3] = test system: HeLa cells; test: HeLa cell inhibition assay (SRB cell viability); assay type: cell-based; conditions: Homo sapiens, HeLa, 72 h, IC50 range
Summary of the method: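 Log-phase cells seeded at 1000 cells/well, grown 24 h, then exposed to compound (final 20 μM top concentration) for 72 h. Viability by sulphorhodamine B staining, % inhibition relative to DMSO control. IC50 from 8-point sigmoidal variable-slope fit.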

[4] = test system: HUT; test: HUT cell inhibition assay (WST-1 cell viability); assay type: cell-based; conditions: HUT cells, 72-96 h, WST-1 assay, IC50 range
Summary of the method: as §1

| IC50 [1] | IC50 [2] | IC50 [3] | Compound | IC50 [4] |
| --- | --- | --- | --- | --- |
| < 100 nM | 331 to 3300 nM | 331 to 3300 nM | O=C(NO)c1cnc(N2CC3C(C2)C3NCCc2ccccc2)nc1 (centres unmarked) [Example 38, N-Hydroxy 2-{6-[(2-phenylethyl)amino]-3-azabicyclo[3.1.0]hex-3-yl}pyrimidine-5-carboxamide] | < 330 nM |
| < 100 nM | < 330 nM | < 330 nM | O=C(NO)c1cnc(N2CC3C(C2)C3NCc2ccccc2)nc1 (centres unmarked) [Example 33, N-Hydroxy 2-[6-(benzylamino)-3-azabicyclo[3.1.0]hex-3-yl]pyrimidine-5-carboxamide] | < 330 nM |
